Measurements as given in PMC10815619, “Leveraging SARS-CoV-2 Main Protease (M^pro) for COVID-19 Mitigation with Selenium-Based Inhibitors” (International Journal of Molecular Sciences, 2024).
Like-named read-outs stand apart in the source and are kept apart here.

Target: T1, SARS-CoV-2 M^pro (Severe acute respiratory syndrome coronavirus 2, UniProt P0DTD1)
T1 construct: covers ORF1ab polyprotein residues 3264–3569; N-terminal leader ending in the Mpro autocleavage site (SAVLQ*SGFRK) (N, cleaved yes); made in house; host or cells: Escherichia coli BL21 (DE3), pET100D-Topo vector
Experiment: Fluorescence-based cleavage assay with AFC-peptide substrate, IC50 against M^pro
Format: biochemical
Description: For the determination of half-maximal inhibitory concentrations (IC50) of inhibitors against M^pro, an AFC-Peptide substrate (SAE0180, Merck) was used for a fluorescence-based cleavage assay [66]. The assay was performed in half area 96-well, black, flat-bottomed microtiter plates (Corstar, Corning, Glendale, CA, USA) with a final volume of 125 μL. M^pro (final concentrations of 5–50 nM) was pre-incubated for 1 h at 25 °C with compounds at different concentrations in the assay buffer (PBS, pH 7.5). […] The readings for the different concentrations of the inhibitor compounds incubated with the substrate without M^Pro were measured as a blank. […] The results were plotted as dose inhibition curves using nonlinear regression with a variable slope to determine the IC50 values of inhibitor compounds using GraphPad Prism 9.0.

Compound | IC50 | IC50 (recombinant M^pro 5-50 nM, 1 h pre-incubation at 25 °C, AFC-peptide substrate 12 μM, PBS pH 7.5, mean ± SD (n = 3), read-out: IC50 against M^pro)
Cc1ccc(NC(=O)[Se]c2ccccc2)cc1 [Cmp. 3b] | 1040 ± 47 nM | –
Cc1cc(C)cc(NC(=O)[Se]Cc2ccc(S(N)(=O)=O)cc2)c1 [Cmp. 3c, Se-(4-Sulfamoylbenzyl) (3,5-Dimethylphenyl) Carbamoselenoate] | – | 704 nM
